Assay results reported in patent publication US12187767B2 (priority 2021, dated 2025).
Entries after “also recorded” stand apart in the source; their conditions may differ. Where two headings read alike, the source gives them in different places. Ends that are not written are not given here.

Tests used:
[1] = system: MDA-MB-231 cells; assay: Acetylcholinesterase (AchE) assay of exosome/EV release; format: cell-based; conditions: for average AChE concentration levels throughout day 1 to 5 / AChE on day 1 (initial increase): MDA-MB-231 cells; for average AChE concentration levels throughout day 1 to 5: five-day treatment at 37° C.; for AChE on day 1 (initial increase): five-day treatment, mock 146.52
Method: (§1) 1.3. EV isolation and purification. EVs were isolated from cells by differential centrifugation as previously described (Ali SA. et al., 2010). Untreated cells were used as a control. Briefly, the above treated and untreated cell culture supernatants were centrifuged at 400×g for 10 minutes. The supernatants were transferred to a clear tube and centrifuged at 10,000×g for 30 minutes. The supernatants from the second spin were […] ultracentrifuged at 200,000×g for 2 hours to pellet the EVs. Finally, the EV pellets were re-suspended with PBS and stored at 4° C. until used for analysis.
(§2) 1.4. Exosome characterization by acetylcholinesterase (AchE) assay. Purified EVs were quantitated by measurement of AchE as described (Ellman et al., 1961). Briefly, a 100 mM dithibionitrobenzoic (DTNB) solution was prepared for use as a stock color indicator, and a 28.9 mg/mL acetylthiocholine iodide in PBS solution was prepared as a stock substrate. The stock substrate stock can be stored at −20° C. up to one month, while the color indicator can be stored at 4° C. for two weeks. A working solution was prepared by mixing 10 mL of PBS with 200 μL of Substrate and 500 μl of DTNB. 50 μL of each exosome sample was transferred to 96 well microtitre plates, and a standard curve was prepared using AchE from 0.98 mU/mL to 2000 mU/mL. After 50 μL of standards were added into separate wells, 200 μL of the working solution was added to all wells. After 20 min incubation, AchE activity was measured at 450 nm using a SpectroMax M5 fluorimeter.

[2] = system: MCF-7 cells; assay: as above; format: cell-based; conditions: for average AChE concentrations throughout days 1 to day 5 / AchE concentrations on day 3 / AchE concentrations, initial increase: MCF-7 cells; for average AChE concentrations throughout days 1 to day 5: five-day treatment at 37° C.; for AchE concentrations on day 3 / AchE concentrations, initial increase: five-day treatment; for AchE concentrations on day 3: mock 69.15; for AchE concentrations, initial increase: initial increase on days 1 and/or 2, mock 155.13
Method: as §1, §2

[3] = system: MCF-7, MDA-MB-231 and K562 cells; assay: Exosome/EV release, overall statements across cell lines (AchE, NanoSight, Western blot); format: cell-based; conditions: for exosome/EV release (number of EVs released): MCF-7, MDA-MB-231 and K562 cells, five days at 37° C., AchE assay
Method: Acetylcholinesterase (AchE) assays, NanoSight analysis and Western blot analysis were performed to characterize EVs released from MCF-7 and MDA-MB-231 cells treated for 48 hr with the various peptides.
To further examine the underlying mechanism for blocking exosome release, a study was extended to examine the effects of the SMRwt peptides, PEG-SMRwt-Clu peptide and SMRwt-CPP peptide, and the mortalin inhibitors MKT-077, Omeprazole, and DMA on exosome release. In particular, acetylcholinesterase (AchE) assays, NanoSight analysis and Western blot analysis were performed to characterize EVs released from MCF-7, MDA-MB-231 and K562 cells. Panels A, B and C depict the relative numbers of EVs released as a function of time as measured by an acetylcholinesterase (AchE) assay in MCF-7 cells (FIG. 6, Panel A); MDA-MB-231 cells (FIG. 6, Panel B); and K562 cells (FIG. 6, Panel C).

[4] = system: MDA-MB-231 cells; assay: Western blot analysis of EV protein content; format: cell-based; conditions: 48 hours treatment
Method: as §1
(§3) 1.6. Western blot analysis. EVs were isolated from culture supernatants as described above. Protein concentrations were determined by measuring absorbance at 280 nm (Nanodrop 2000). Protein samples were denatured in SDS-PAGE sample buffer by heating at 95° C. for 15 min. Criterion TGX Precast Gels (4-20% Bio-Rad, Richmond, CA) were used to separate the proteins and blotted as previously described (Huang MB. et al 2004). Blots were incubated with the primary antibodies, anti-CD63 and anti-Alix, followed by goat or rabbit anti-Ig secondary antibodies. Specific bands were detected using ECL chemiluminescent substrate (Santa Cruz Biotechnology, Santa Cruz, CA) and visualized on the ImageQuant LAS 4000 imaging system (GE Healthcare, Piscataway, NJ 08854).
(§4) Western blot analysis was used to examine the effects of the SMRwt peptides, PEG-SMRwt-Clu peptide and SMRwt-CPP peptide, and the mortalin inhibitors MKT-077, Omeprazole, and DMA on EV protein content in MCF-7, MDA-MB-231 and K562 cells. Negative control treatments included the PEG-SMRmut-Clu peptide, […] (SEQ ID NO: 49) and the SMRmut-CPP peptide, […] (SEQ ID NO: 50). EVs were isolated from all treated and untreated cell lines screened. Western blot analyses were carried out to evaluate the expression levels of the exosomal proteins, Alix, mortalin, and vimentin in MCF-7 cells (FIG. 7, Panel A, left sub-panel), MDA-MB-231 cells (FIG. 7, Panel A, middle sub-panel), and K562 cells (FIG. 7, Panel A, right sub-panel).

[5] = system: K562 cells; assay: Western blot analysis of EV protein content; format: cell-based; conditions: 48 hours treatment
Method: as §1, §3, §4

[6] = system: MCF-7 cells; assay: Western blot analysis of EV protein content; format: cell-based; conditions: 48 hours treatment; for Alix expression in EVs / Vimentin expression in EVs: relative to negative controls
Method: as §1, §3, §4

[7] = system: MCF-7, MDA-MB-231 and K562 cells; conditions: previously shown (Huang et al., Oncotarget (2017)); cited from earlier work
[8] = system: MDA-MB-231 cells; assay: Complement-mediated cytotoxicity (anti-CXCR4 antibody plus NHS or NIS, trypan blue exclusion); format: cell-based; conditions: 280 nM PEG-SMRwt-Clu or 560 nM SMRwt-CPP
Method: (§5) Therefore, it was of interest to see whether SMR peptide driven mortalin sequestration and functional disruption increases cell sensitivity to complement-induced cell death. Accordingly, MCF-7, MDA-MB-231, and K562 cells were treated with 280 nM PEG-SMRwt-Clu peptide or 560 nM SMRwt-CPP peptide alone for 60 min at 37° C., followed by treatment with 1 μg/mL anti-CXCR4 antibody and 50 μL normal human serum (NHS; as a source of complement) or normal heat-inactivated (human) serum (NIS) for an additional 60 min at 37° C. (FIG. 8). PEG-SMRmut-Clu peptide and SMRmut-CPP peptide were used as negative controls. The percentage of stained (dead) cells was determined by trypan blue exclusion and is representative of 3 independent experiments.
(§6) To further validate the ability of mortalin neutralization to render or enhance complement-mediated cytotoxicity, MCF-7, MDA-MB-231 and K562 cells were transfected with vectors expressing mortalin siRNAs or negative control siRNAs, incubated for 72 hours at 37° C., treated with anti-CXCR4 antibody for 30 minutes at 4° C. followed by incubation with either NHS or NIS for 60 minutes at 37° C.

[9] = system: K562 cells; assay: as above; format: cell-based; conditions: 280 nM PEG-SMRwt-Clu or 560 nM SMRwt-CPP
Method: as §5, §6

[10] = system: MCF-7 cells; assay: as above; format: cell-based; conditions: 280 nM PEG-SMRwt-Clu or 560 nM SMRwt-CPP
Method: as §5, §6

[11] = system: K562, MCF-7 and MDA-MB-231 cultures; assay: Complement-mediated cytotoxicity, overall statements across cell lines; format: cell-based; conditions: peptide, then anti-CXCR4 antibody and NHS
Method: as §5, §6

[12] = system: MDA-MB-231 cells; assay: NanoSight nanoparticle tracking analysis (NTA) of released EVs; format: cell-based; conditions: MDA-MB-231 cells treated for 48 hr; control media 4.7×10^9 particles/ml
Method: as §1
(§7) 1.5. EV nanoparticle tracking analysis (NTA). Analysis of absolute size distribution of EVs was performed using NanoSight LM10 with NTA2.3 (NanoSight Ltd., Minton Park, UK). EV particles were automatically tracked and sized based on Brownian motion and the diffusion coefficient. After isolation, the untreated and treated EVs were re-suspended in 0.5 mL of PBS. Control medium and filtered PBS were used as controls in this technique. The NTA measurement conditions were: temperature=21.0+/−0.5° C.; viscosity=0.99+/−0.01 cP; frames per second=25; measurement time=30 s. The detection threshold was similar in all samples. […]

[13] = system: MCF-7 cells; assay: as above; format: cell-based; conditions: MCF-7 cells treated for 48 hr; untreated control 5.16×10^9 particles/ml
Method: as §1, §7

[14] = then anti-CXCR4 antibody and NHS

Row | Compound | average AChE concentration levels throughout day 1 to 5 [1] [mU/mL] | average AChE concentrations throughout days 1 to day 5 [2] [mU/mL] | exosome/EV release (number of EVs released) [3] | Mortalin expression in EVs [4] | Vimentin expression in EVs [4] | Alix expression in EVs [5] | Mortalin expression in EVs [5] | Vimentin expression in EVs [5] | Mortalin expression in EVs [6] | Alix expression in EVs [6] | Vimentin expression in EVs [6] | also measured
1 | CCn1c(=Cc2cccc[n+]2CC)sc(=C2Sc3ccccc3N2C)c1=O.[Cl-] [MKT-077, 1-Ethyl-2-[[3-ethyl-5-(3-methyl-2(3H)-benzothiazolylidene)-4-oxo-2-thiazolidinylidene]methyl]-pyridinium chloride] | 29 | 22 | reduced the number of EVs released; also recorded: blocked exosome release | No significant change | no significant change | significantly decreased | significantly decreased | significantly increased | significantly decreased | significantly decreased | significantly decreased | –
2 | COc1ccc2[nH]c([S+]([O-])Cc3ncc(C)c(OC)c3C)nc2c1 (stereo not drawn) [Omeprazole, 5-Methoxy-2-[[(4-methoxy-3,5-dimethyl-2-pyridinyl)methyl]sulfinyl]-1H-benzimidazole] | 25 | 26 | reduced the number of EVs released; also recorded: blocked exosome release | No significant change | no significant change | significantly decreased | significantly decreased | significantly increased | no significant changes | not accompanied by significant reductions | significantly decreased | –
3 | VGFPVAAVGFPVHPLSKHPYWSQP (SEQ ID NO: 47) [PEG-SMRwt-Clu] | 42 | 31 | reduced the number of EVs released; also recorded: blocked exosome release | significantly decreased | significantly decreased | significantly decreased | significantly decreased | – | significantly decreased | significantly decreased | significantly decreased | exosome release [7]: block exosome release; cell death under complement-negative conditions ([8]; 60 min): 3.6%; cell death under complement-positive conditions [8, 14]: 76%; cell death under complement-negative conditions ([9]; 60 min): 4.3%; cell death under complement-positive conditions [9, 14]: 55%; cell death under complement-negative conditions ([10]; 60 min): 2.1%; cell death under complement-positive conditions [10, 14]: 26%; complement-mediated cytotoxicity / cell death in the presence of NHS [11]: induce complement-mediated cytotoxicity; AchE activity in EVs ([1]; MDA-MB-231 cells treated for 48 hr, control EVs 118.48 mU/mL): 66.77 mU/mL; AchE activity in EVs ([2]; MCF-7 cells treated for 48 hr, control EVs 113.49 mU/mL): 41.95 mU/mL; exosome release ([3]; MCF-7 and MDA-MB-231 cells treated for 48 hr): blocks exosome release; number of particles (NTA) [12]: 6.8×10^8 particles/mL; number of particles (NTA) [13]: 3.28×10^8 particles/mL; Alix expression in EVs [4]: significantly decreased
4 | CN(C)c1nc(N)c(C(=O)NC(=N)N)nc1Cl [DMA, 5-(N,N-Dimethyl)amiloride] | 37 | 26 | reduced the number of EVs released; also recorded: blocked exosome release | – | significantly decreased | significantly decreased | significantly decreased | significantly increased | no significant changes | not accompanied by significant reductions | significantly decreased | –
5 | NXNAGFPVAAAGFPVHPLSKHPYWSQP (SEQ ID NO: 49) [PEG-SMRmut-Clu] | – | – | – | – | – | – | – | – | – | – | – | AChE on day 1 (initial increase) [1]: 146.79 mU/mL; AchE concentrations on day 3 [2]: 69.0 mU/mL; AchE concentrations, initial increase [2]: 151.5 mU/mL
6 | AGFPVAAAGFPVGRKKRRQRRRPPQ (SEQ ID NO: 50) (Synthetic SMRmut-CPP) | – | – | – | – | – | – | – | – | – | – | – | AChE on day 1 (initial increase) [1]: 141.47 mU/mL; AchE concentrations on day 3 [2]: 66.05 mU/mL; AchE concentrations, initial increase [2]: 150.06 mU/mL
7 | VGFPVAAVGFPVGRKKRRQRRRPPQ [SMRwt-CPP] | – | – | – | – | – | – | – | – | – | – | – | complement-mediated cytotoxicity / cell death in the presence of NHS [11]: induce complement-mediated cytotoxicity
